Patent publication US12187721B2, “Protein tyrosine phosphatase inhibitors” (Array BioPharma Inc., priority 2018, dated 2025)

Molecular target: T1, full-length SHP2 (His6-tagged SHP2(2-527)) (Homo sapiens, UniProt Q06124)
T1 construct: His6-tagged SHP2(2-527); His6; made in house; host or cells: E. coli
Experiment: SHP2 Enzymatic Assay (fluorescence intensity kinetic assay, DiFMUP hydrolysis)
Type: biochemical
Procedure: A fluorescence intensity kinetic assay was configured for full-length SHP2 that monitors the amount of 6,8-difluoro-7-hydroxy-4-methylcoumarin (“DiFMU”) formed upon hydrolysis of 6,8-difluoro-4-methylumbelliferyl phosphate (“DiFMUP”) by SHP2. Assay mixtures consisted of 25 mM K^+HEPES, pH 7.4, 0.01% Triton X-100, 1 mM DTT, 50 mM KCl, 100 μg/mL bovine γ-globulin, 50 μM DiFMUP, 1 μM SHP2 activating peptide (LN(pY)IDLDLV(dPEG8)LST(pY)ASINFQK-amide), 1 nM full-length SHP2 (His6-tagged SHP2(2-527), recombinantly expressed in E. coli and purified in-house) and 2% dimethylsulfoxide (“DMSO”) (from compound). […] The assay was run in 384-well, polystyrene, low-volume, non-treated, black microtiter plates (Costar 4511) in a final volume of 20 μL. Low control wells lacked enzyme. The assays were initiated by the addition of a mixture of SHP2 and the activating peptide, and following a 15 second mix on an orbital shaker, were read in kinetic mode for 15 minutes (30 seconds/cycle) at ambient temperature on a PerkinElmer EnVision microplate reader (λEx=355 nm, λEm=460 nm). Initial velocities (slopes of the tangents at t=0) were estimated from exponential fits to the slightly nonlinear progress curves and then were converted to percent of control (“POC”) using the following equation:
[formula] • Where: Xmax Average Uninhibited Controls • Xmin Average Background A 4-parameter logistic model was the fit to the POC data for each compound. From that fit, the IC50 was estimated and is defined as the concentration of compound at which the curve crosses 50 POC.
The reported IC50 in Table 1 may be from a single assay or the mean of multiple assays.

T1 sequence (Q06124 2-527): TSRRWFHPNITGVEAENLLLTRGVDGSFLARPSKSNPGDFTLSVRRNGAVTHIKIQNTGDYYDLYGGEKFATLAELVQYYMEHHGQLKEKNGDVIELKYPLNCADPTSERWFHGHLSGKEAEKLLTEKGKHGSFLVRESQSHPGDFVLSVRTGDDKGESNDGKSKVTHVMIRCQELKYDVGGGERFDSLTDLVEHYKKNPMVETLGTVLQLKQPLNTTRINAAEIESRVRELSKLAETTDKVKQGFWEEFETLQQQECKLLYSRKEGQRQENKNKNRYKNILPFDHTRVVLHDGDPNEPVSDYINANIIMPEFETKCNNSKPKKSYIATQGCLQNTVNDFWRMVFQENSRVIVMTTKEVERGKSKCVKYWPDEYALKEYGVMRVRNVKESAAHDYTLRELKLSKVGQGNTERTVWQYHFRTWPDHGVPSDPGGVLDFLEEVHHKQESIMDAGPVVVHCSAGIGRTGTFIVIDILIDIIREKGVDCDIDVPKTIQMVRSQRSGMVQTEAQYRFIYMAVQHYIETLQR

Structure (SMILES) | IC50
Nc1nccc(Sc2ccc3nc(N4CCC5(CC4)c4ccccc4[C@H]5N)cnc3n2)c1Cl [Example 165, (S)-1′-(6-((2-amino-3-chloropyridin-4-yl)thio)pyrido[2,3-b]pyrazin-2-yl)spiro[bicyclo[4.2.0]octane-7,4′-piperidine]-1(6),2,4-trien-8-amine] | 16000 nM
Cc1c(Sc2ccc3nc(N4CCC5(CC4)CO[C@@H](C)[C@H]5N)cnc3n2)ccnc1N [Example 72, (3S,4S)-8-(6-((2-amino-3-methylpyridin-4-yl)thio)pyrido[2,3-b]pyrazin-2-yl)-3-methyl-2-oxa-8-azaspiro[4,5]decan-4-amine] | 149 nM
COCCC1(N)CCN(c2cnc3nc(Sc4ccnc(N)c4Cl)ccc3n2)CC1 [Example 182, 4-((2-(4-amino-4-(2-methoxyethyl)piperidin-1-yl)pyrido[2,3-b]pyrazin-6-yl)thio)-3-chloropyridin-2-amine] | 80 nM
C[C@@H]1OCC2(CCN(c3cnc4nc(Sc5ccnc6[nH]ncc56)ccc4n3)CC2)[C@@H]1N [Example 214, (3S,4S)-8-(6-((1H-pyrazolo[3,4-b]pyridin-4-yl)thio)pyrido[2,3-b]pyrazin-2-yl)-3-methyl-2-oxa-8-azaspiro[4.5]decan-4-amine] | 304 nM
CC1(N)CCN(c2cnc3nc(-c4cccc(F)c4Cl)ccc3n2)CC1 [Example 152, 1-(6-(2-chloro-3-fluorophenyl)pyrido[2,3-b]pyrazin-2-yl)-4-methylpiperidin-4-amine] | 30 nM
Nc1nccc(Sc2ccc3nc(N4CC[C@@H](N)[C@H](O)C4)cnc3n2)c1Cl [Example 82, (3R,4R)-4-amino-1-(6-((2-amino-3-chloropyridin-4-yl)thio)pyrido[2,3-b]pyrazin-2-yl)piperidin-3-ol] | 65 nM
Nc1ncc(Sc2ccc3nc(N4CCC5(CC4)Cc4ccccc4[C@H]5N)cnc3n2)c(Cl)c1Cl [Example 119, (S)-1′-(6-((6-amino-4,5-dichloropyridin-3-yl)thio)pyrido[2,3-b]pyrazin-2-yl)-1,3-dihydrospiro[indene-2,4′-piperidin]-1-amine] | 39 nM
C[Si]1(CN)CCN(c2cnc3nc(Sc4ccnc(N)c4Cl)ccc3n2)CC1 [Example 109, 4-((2-(4-(Aminomethyl)-4-methyl-1,4-azasilinan-1-yl)pyrido[2,3-b]pyrazin-6-yl)thio)-3-chloropyridin-2-amine] | 27 nM
CC1(N)CCN(c2cnc3nc(Sc4nccn5nccc45)ccc3n2)CC1 [Example 40, 4-methyl-1-(6-(pyrazolo[1,5-a]pyrazin-4-ylthio)pyrido[2,3-b]pyrazin-2-yl)piperidin-4-amine] | 440 nM
C[C@@H]1OCC2(CCN(c3cnc4nc(Sc5ccnc(N6CCC(O)C6)c5Cl)ccc4n3)CC2)[C@@H]1N (stereo partly drawn) [Example 89, 1-(4-((2-((3S,4S)-4-amino-3-methyl-2-oxa-8-azaspiro[4.5]decan-8-yl)pyrido[2,3-b]pyrazin-6-yl)thio)-3-chloropyridin-2-yl)pyrrolidin-3-ol] | 79 nM
NCC1(CO)CCN(c2cnc3nc(Sc4ccnc(N)c4Cl)ccc3n2)CC1 [Example 86, (1-(6-((2-amino-3-chloropyridin-4-yl)thio)pyrido[2,3-b]pyrazin-2-yl)-4-(aminomethyl)piperidin-4-yl)methanol] | 53 nM
Nc1nccc(Sc2ccc3nc(N4CCC5(CCN5)CC4)cnc3n2)c1Cl [Example 55, 4-((2-(1,7-diazaspiro[3.5]nonan-7-yl)pyrido[2,3-b]pyrazin-6-yl)thio)-3-chloropyridin-2-amine] | 121 nM
Cc1ccc(Sc2ccc3nc(N4CCC(C)(N)CC4)cnc3n2)c(Cl)n1 [Example 98, 1-(6-((2-chloro-6-methylpyridin-3-yl)thio)pyrido[2,3-b]pyrazin-2-yl)-4-methylpiperidin-4-amine] | 169 nM
C[C@]1(N)CCCN(c2cnc3nc(Sc4ccnc(N)c4Cl)ccc3n2)CC1 (single isomer, unassigned) [Example 75] | 30 nM
